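The compound was tested at five concentrations on cells cultured in 96-well plates, with a 48-hour exposure period. Here, GI50 denotes the concentration required for 50% inhibition of growth.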 Active and inactive are the calls of the source. Rule as the data show it: active = GI50 up to about 1.1 µM and inactive = higher.
What was measured:
Assay in all cases: DTP human tumour cell line panel, 48 h
MCF7 = tested on: MCF7
CCRF-CEM = tested on: CCRF-CEM
SF-295 = tested on: SF-295
A549 = tested on: A549
KM12 = tested on: KM12
NCI-H226 = tested on: NCI-H226
HCT-15 = tested on: HCT-15
SNB-75 = tested on: SNB-75
TK-10 = tested on: TK-10
SK-OV-3 = tested on: SK-OV-3
NCI-H460 = tested on: NCI-H460
MDA-N = tested on: MDA-N
A498 = tested on: A498
NCI-H23 = tested on: NCI-H23
HCT-116 = tested on: HCT-116
OVCAR-4 = tested on: OVCAR-4
CAKI-1 = tested on: CAKI-1
M14 = tested on: M14
IGROV-1 = tested on: IGROV-1

SMILES	GI50 (MCF7)	GI50 (CCRF-CEM)	GI50 (SF-295)	GI50 (A549)	GI50 (KM12)	GI50 (NCI-H226)	GI50 (HCT-15)	GI50 (SNB-75)	GI50 (TK-10)	GI50 (SK-OV-3)	GI50 (NCI-H460)	GI50 (MDA-N)	GI50 (A498)	GI50 (NCI-H23)	GI50 (HCT-116)	GI50 (OVCAR-4)	GI50 (CAKI-1)	GI50 (M14)	GI50 (IGROV-1)
CCOC(=O)C1(CO)CSCCSC1	> 100 µM (inactive)	> 100 µM (inactive)	> 100 µM (inactive)	> 100 µM (inactive)	> 100 µM (inactive)	> 100 µM (inactive)	> 100 µM	> 100 µM (inactive)	> 100 µM (inactive)	> 100 µM (inactive)	> 100 µM (inactive)	> 100 µM (inactive)	> 100 µM (inactive)	> 100 µM (inactive)	> 100 µM (inactive)				
Cc1cc(C)n(C(=CC(=O)C(Cl)Cl)n2nc(C)cc2C)n1	3.94 µM (inactive)	1.85 µM (inactive)	10.4 µM (inactive)	21.7 µM (inactive)	6.49 µM (inactive)	0.735 µM (active)	2.73 µM	> 100 µM (inactive)	3.18 µM (inactive)	23.5 µM (inactive)	6.97 µM (inactive)		53.1 µM (inactive)	2.62 µM (inactive)	1.76 µM (inactive)	> 100 µM (inactive)	4.94 µM (inactive)	2.83 µM (inactive)	9.64 µM (inactive)
COc1cc(/C=N/NC(=O)c2c(Cl)c(Cl)c(Cl)c(Cl)c2-c2nc3cc(C(=O)c4ccccc4)ccc3[nH]2)ccc1O	26.5 µM (inactive)	23 µM (inactive)	29.9 µM (inactive)	42.1 µM (inactive)	46.5 µM (inactive)	34.2 µM (inactive)	15.6 µM	42.1 µM (inactive)	45.5 µM (inactive)	56.4 µM (inactive)		16.1 µM (inactive)		28.4 µM (inactive)	36.1 µM (inactive)	49.1 µM (inactive)	62.2 µM (inactive)	34.3 µM (inactive)	47.6 µM (inactive)
COC(=O)c1ccc(/C=C2\Cc3ccccc3C2=O)cc1	> 100 µM (inactive)	> 100 µM (inactive)	> 100 µM (inactive)	> 100 µM (inactive)	> 100 µM (inactive)		> 100 µM	> 100 µM (inactive)	> 100 µM (inactive)	> 100 µM (inactive)	> 100 µM (inactive)	> 100 µM (inactive)		> 100 µM (inactive)	> 100 µM (inactive)	> 100 µM (inactive)	> 100 µM (inactive)	> 100 µM (inactive)	
O=c1[nH]c(NCc2ccncc2)nc2[nH]cnc12	> 100 µM (inactive)	> 100 µM (inactive)	> 100 µM (inactive)	> 100 µM (inactive)	> 100 µM (inactive)	> 100 µM (inactive)	> 100 µM	> 100 µM (inactive)	> 100 µM (inactive)	> 100 µM (inactive)	> 100 µM (inactive)	> 100 µM (inactive)		> 100 µM (inactive)	> 100 µM (inactive)	> 100 µM (inactive)	> 100 µM (inactive)	> 100 µM (inactive)	> 100 µM (inactive)
O=C(O)C1(Cc2ccc3c(c2)CCC3)Cc2ccccc2C1	> 100 µM (inactive)	62.8 µM (inactive)	38.9 µM (inactive)	43 µM (inactive)	46.3 µM (inactive)	91 µM (inactive)	54.2 µM	67.1 µM (inactive)	> 100 µM (inactive)	31 µM (inactive)	52.1 µM (inactive)	> 100 µM (inactive)	36.1 µM (inactive)	67.6 µM (inactive)	50.4 µM (inactive)	23.3 µM (inactive)		> 100 µM (inactive)	> 100 µM (inactive)
CC1(C)C=[N+]([O-])C(C)(C)N1O	> 10 µM (inactive)	> 10 µM (inactive)	> 10 µM (inactive)	> 10 µM (inactive)	> 10 µM (inactive)	> 10 µM (inactive)	> 10 µM		> 10 µM (inactive)		> 10 µM (inactive)	> 10 µM (inactive)		> 10 µM (inactive)	> 10 µM (inactive)	> 10 µM (inactive)	> 10 µM (inactive)	> 10 µM (inactive)	
NS(=O)(=O)c1ccc(CNC(=S)NC(=O)Nc2ccc(Cl)c(Cl)c2)cc1	19.5 µM (inactive)	16.4 µM (inactive)	16.3 µM (inactive)	23.6 µM (inactive)	19 µM (inactive)		16.2 µM	17.5 µM (inactive)	39.5 µM (inactive)	19.6 µM (inactive)	25.2 µM (inactive)	20 µM (inactive)	16.2 µM (inactive)	14.8 µM (inactive)	17.5 µM (inactive)	31.5 µM (inactive)		19 µM (inactive)	17.9 µM (inactive)
C=C1C(=O)O[C@H]2[C@H]3O[C@@H](C[C@@H]12)[C@@]1(C)CC[C@H](O1)[C@H](C)CCC[C@H]3C	1.77 µM (inactive)	0.399 µM (active)	4.82 µM (inactive)	2.16 µM (inactive)	2.18 µM (inactive)	1.53 µM (inactive)	1.81 µM	1.63 µM (inactive)	1.62 µM (inactive)	7.38 µM (inactive)	1.76 µM (inactive)		1.71 µM (inactive)	1.75 µM (inactive)	1.04 µM (active)	1.58 µM (inactive)	1.28 µM (inactive)		1.19 µM (inactive)
COc1ccc(C2c3c(n(C)c(=O)n(C)c3=O)OC(N(C)C)(N(C)C)C2(F)F)cc1 (stereo not given)	> 100 µM (inactive)	> 100 µM (inactive)	> 100 µM (inactive)	> 100 µM (inactive)	> 100 µM (inactive)	> 100 µM (inactive)	> 100 µM	> 100 µM (inactive)	> 100 µM (inactive)	> 100 µM (inactive)	> 100 µM (inactive)		> 100 µM (inactive)	> 100 µM (inactive)	> 100 µM (inactive)	> 100 µM (inactive)	> 100 µM (inactive)	> 100 µM (inactive)	
COc1cc(C2SC(=N)Nc3c2c(C)nn3C(=O)c2ccc(Cl)cc2)cc(OC)c1OC (stereo not given)	> 10 µM (inactive)	> 10 µM (inactive)	> 10 µM (inactive)	> 10 µM (inactive)	> 10 µM (inactive)	> 10 µM (inactive)	> 10 µM	> 10 µM (inactive)	> 10 µM (inactive)	> 10 µM (inactive)	> 10 µM (inactive)	> 10 µM (inactive)		> 10 µM (inactive)	> 10 µM (inactive)	> 10 µM (inactive)	> 10 µM (inactive)	> 10 µM (inactive)	> 10 µM (inactive)
COc1ccc(CCCNC(=O)c2cc(OC)c(OC)cc2CCO)cc1OC	> 100 µM (inactive)	> 10 µM (inactive)	> 100 µM (inactive)	> 100 µM (inactive)	> 100 µM (inactive)	> 100 µM (inactive)	> 100 µM	> 100 µM (inactive)	> 100 µM (inactive)	> 100 µM (inactive)	> 100 µM (inactive)		> 100 µM (inactive)	> 100 µM (inactive)	> 100 µM (inactive)	> 100 µM (inactive)	> 100 µM (inactive)	> 100 µM (inactive)	> 100 µM (inactive)
COc1ccc2c(c1OC)OCC(CN(C)C)C2=O (stereo not given)	8.95 µM (inactive)	2.15 µM (inactive)	> 100 µM (inactive)	26.1 µM (inactive)	16.5 µM (inactive)	> 47.1 µM (inactive)	18.1 µM	22.3 µM (inactive)	16.7 µM (inactive)	> 43.1 µM (inactive)	> 44.6 µM (inactive)	18.2 µM (inactive)		17.1 µM (inactive)	17.4 µM (inactive)	22.9 µM (inactive)	3.01 µM (inactive)	17.3 µM (inactive)	18.6 µM (inactive)
O=C1NC(=O)C(CC(C(=O)C(=O)Nc2ccccc2Cl)C(=O)c2ccc3ccccc3c2)C(=O)N1 (stereo not given)	> 100 µM (inactive)	> 100 µM (inactive)	> 100 µM (inactive)	> 100 µM (inactive)	> 100 µM (inactive)	> 100 µM (inactive)	> 100 µM	> 100 µM (inactive)	> 100 µM (inactive)	> 100 µM (inactive)	> 100 µM (inactive)	> 100 µM (inactive)		> 100 µM (inactive)	> 100 µM (inactive)	> 100 µM (inactive)	> 100 µM (inactive)	> 100 µM (inactive)	> 100 µM (inactive)
CCC(=O)NC(Nc1ccc(O)cc1)(C(F)(F)F)C(F)(F)F	46.3 µM (inactive)	19.6 µM (inactive)			62.7 µM (inactive)	> 100 µM (inactive)	29.9 µM	> 100 µM (inactive)	> 100 µM (inactive)	> 100 µM (inactive)	> 100 µM (inactive)	17.9 µM (inactive)	> 100 µM (inactive)	67.8 µM (inactive)	46.3 µM (inactive)			80.5 µM (inactive)	
COc1nn(Cc2ccccc2F)c2ccc([N+](=O)[O-])cc12	> 100 µM (inactive)	> 100 µM (inactive)		> 100 µM (inactive)	> 100 µM (inactive)	> 100 µM (inactive)	> 100 µM	> 100 µM (inactive)	> 100 µM (inactive)		> 100 µM (inactive)	3.4 µM (inactive)		> 100 µM (inactive)	> 100 µM (inactive)	> 100 µM (inactive)	> 100 µM (inactive)	> 100 µM (inactive)	> 100 µM (inactive)
